# Measured values from patent US20200221654A9, “APPLICATIONS OF ROOT-ADMINISTERED CHEMICAL HYBRIDIZING AGENTS IN PLANT BREEDING” (BAYER CROPSCIENCE AKTIENGESELLSCHAFT, priority 2016, published 2020).
# Columns and labels:
# Format in all cases: in vivo
# [1] = system: Wheat plants of the wheat varieties JB Asano and Apache; experiment: Male sterility after a single root application (watering) of Clofencet to potted wheat plants, seed set of bagged ears (Example 1); conditions: for Average sterility relative to control: 1 root treatment, Zadok stage 31
# Experimental: Wheat plants of the wheat varieties JB Asano and Apache were grown in the greenhouse in standard planting pots, bottom perforated, edge length 12 cm, height 13 cm, with one plant per pot. Twelve pots were placed into a plastic tray, bottom non-perforated with fleece inlay (e.g. available at Hermann Meyer KG unter article no. 44 54 11). Standard greenhouse growing substrate soil (bedding substrate 1 of Klasmann-Deilmann GmbH) was filled into the pot ca. 2 cm below edge. Plants were grown under standard growing conditions with respect to fertilizer, watering, disease and light management. Each plant was reduced to 4 tillers. The necessary active amount of Clofencet per plant was calculated according to the standard foliar spray application protocol of 5.42 kg per hectare assuming 400 ears per square meter taking the higher tiller number of potted plants into account (average number of ears per plant in the field is typically 1.15 but it was 4 in our potted plants, so the dose rate for root application per plant, i.e. per pot, was adjusted upward). At Zadoks growth stage 31 the plants were watered with 0.0 mg (control), 10.84 mg, 16.26 mg and 21.68 mg, respectively, of Clofencet in 200 ml tap water per pot. Each treatment was repeated on 12 plants, whereas the highest concentration was repeated on 24 plants. Before flowering time (Zadoks stage 57 of control group) ears were bagged to avoid unwanted cross-pollination. Bags were removed at beginning of grain filling (Zadoks stage 75 and higher), seed set was determined at kernel ripeness of the control group. When ears carried mature seeds, the ears were threshed with a hand-threshing device (Baumann Dreschhexe #4.701.200) and the kernels per plant were counted. A wheat ear is called completely sterile (=100% sterility) when no kernel developed on a bagged ear. The average number of grains per plant of the control plants was set to 0% sterility.
# [2] = system: Wheat plants of the wheat varieties JB Asano and Apache; experiment: Female fertility: seed set of Clofencet-treated male sterile plants after pollination with pollen from an untreated control plant (Example 3); conditions: for Average seed set of Clofencet treated plants after pollination with wheat pollen (rel. to control): 1 root treatment, Zadok stage 31
# Text: Male sterile plants generated by Clofencet treatment as described in Example 1 were used. Before single bagging the 4 ears of each plant at Zadoks stages 55-59, flowers were clipped to facilitate pollination. At flowering time (spikelets wide open) three male-sterile ears (no pollen in the transparent bags) were pollinated with pollen from an untreated control plant of the same wheat variety. One sterile ear was not pollinated to cross check the efficacy of the Clofencet treatment. Bags were removed at beginning of grain filling (Zadoks stage 75 and higher), seed set was determined at kernel maturity. If ears had set seed, the ears were threshed with a hand-threshing device (Baumann Dreschhexe #4.701.200) and the kernels per plant were counted. The average number of grains per plant of the control plants was set to 100% seed set.
# [3] = system: Wheat plants of the wheat varieties JB Asano and KWS Target; experiment: Male sterility after weekly root application (watering) of WL84811 to potted wheat plants, seed set of bagged ears (Example 2); conditions: for Average sterility relative to control after CHA: 1.0 mg/plant WL84811 in 100 ml water per treatment, 11 weekly root treatments (total 11.0 mg/plant), Zadok stage 31 to 65
# Experimental: Wheat plants of the wheat varieties JB Asano and KWS Target were grown in the greenhouse in standard planting pots, bottom perforated, edge length 12 cm, height 13 cm, with one plant per pot. Twelve pots were placed into a plastic tray, bottom non-perforated with fleece inlay. Sandy loam from the field was filled into the pots ca. 2 cm below edge. Plants were grown under standard growing conditions with respect to fertilizer, watering, disease and light management. Each plant per pot was reduced to 4 tillers. The treatment was watering each pot with 0.0 mg (control) or 1.0 mg WL84811 in 100 ml tap water per pot. Each treatment was repeated on 2 plants per variety, watering with the treatment was done once a week for 11 weeks starting at Zadoks growth stage 31 until growth stage 65 of the control group. Ears were bagged to avoid unwanted cross-pollination. Bags were removed at beginning of grain filling (Zadoks stage 75 and higher), seed set was determined at kernel maturity of the control group. When ears had set seed, the ears were threshed by hand and the kernels per plant were counted. A wheat ear is called completely sterile (=100% sterility) when no kernel was developed on a bagged ear. The average number of grains per plant of the control plants was set to 0% sterility.
# [4] = variety Apache, 10.84 mg/plant Clofencet in 200 ml water
# [5] = variety Apache, 16.26 mg/plant Clofencet in 200 ml water
# [6] = variety Apache, 21.68 mg/plant Clofencet in 200 ml water
# [7] = variety JB Asano, 10.84 mg/plant Clofencet in 200 ml water
# [8] = variety JB Asano, 16.26 mg/plant Clofencet in 200 ml water
# [9] = variety JB Asano, 21.68 mg/plant Clofencet in 200 ml water
compound,measurement,setting,value
"CCc1c(C(=O)O)c(=O)cnn1-c1ccc(Cl)cc1 [Clofencet, 2-(4-chlorophenyl)-3-ethyl-2,5-dihydro-5-oxopyridazine-4-carboxylic acid]",further effect on male sterility at higher doses (data not shown),[1]; doses of active substance higher than 21.68 mg per plant,do not have any further positive effect
same,male sterility,[1]; single root application dose of 10.84 mg per plant with four tillers at growth stage 31,satisfying amount of average male sterility
same,male sterility,[1]; single root application of 16.26 mg per plant at growth stage 31,~100%
same,Average sterility relative to control,[1]; [4],91.88%
same,Average sterility relative to control,[1]; [5],98.69%
same,Average sterility relative to control,[1]; [6],99.64%
same,Average sterility relative to control,[1]; [7],94.72%
same,Average sterility relative to control,[1]; [8],99.96%
same,Average sterility relative to control,[1]; [9],98.65%
same,seed set of bagged plants,[1]; watered once with an active dose of 16.26 mg or more in Zadoks stage 31,Almost no plants
same,female fertility of the treated plants,"[2]; root treatment once, pollinated with pollen of untreated control plants",does not harm the female fertility
same,seed set compared to the control with 100% seed set,[2]; variety Apache,even seems to enhance seed set
same,Average seed set of Clofencet treated plants after pollination with wheat pollen (rel. to control),[2]; [4],101%
same,Average seed set of Clofencet treated plants after pollination with wheat pollen (rel. to control),[2]; [5],115%
same,Average seed set of Clofencet treated plants after pollination with wheat pollen (rel. to control),[2]; [6],107%
same,Average seed set of Clofencet treated plants after pollination with wheat pollen (rel. to control),[2]; [7],98%
same,Average seed set of Clofencet treated plants after pollination with wheat pollen (rel. to control),[2]; [8],94%
same,Average seed set of Clofencet treated plants after pollination with wheat pollen (rel. to control),[2]; [9],75%
"O=C(O)C1CNC1 [WL84811, azetidine-3-carboxylic acid]",generation of male sterility,"[3]; regular weekly watering with 1.0 mg, root treatment",very effective to generate male sterility
same,Average sterility relative to control after CHA,[3]; variety JB Asano,100%
same,Average sterility relative to control after CHA,[3]; variety KWS Target,100%
same,seed set of treated plants bagged before flowering,"[3]; weekly 1.0 mg root treatment, bagged before flowering",No plant
